This assay relates to B6C3F1 mice, B16 melanoma ip, median survival T/C. In words: NCI In Vivo Anticancer Drug Screen. Data for tumor model B16 Melanoma (intraperitoneal) in B6C3F1 mice. Particulars: endpoint: median survival time, higher = longer survival. The method in brief:
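Tumor-bearing mice received test compound; a separate group got vehicle only. Survival was then compared, with results reported as treated over control.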

[1] abbreviates: dose: 12.5 mg/kg/injection, schedule: Q01DX009 (ip), vehicle: saline.
Where [2] appears, read: dose: 25.0 mg/kg/injection, schedule: Q01DX009 (ip), vehicle: saline.
Setting [3] is: dose: 50.0 mg/kg/injection, schedule: Q01DX009 (ip), vehicle: saline.
[4] abbreviates: dose: 100.0 mg/kg/injection, schedule: Q01DX009 (ip), vehicle: saline.
Setting [5] is: dose: 200.0 mg/kg/injection, schedule: Q01DX009 (ip), vehicle: saline.
[6] abbreviates: dose: 12.5 mg/kg/injection, schedule: Q01DX009 (ip), vehicle: saline with Tween-80.
Setting [7] is: dose: 25.0 mg/kg/injection, schedule: Q01DX009 (ip), vehicle: saline with Tween-80.
Setting [8] is: dose: 50.0 mg/kg/injection, schedule: Q01DX009 (ip), vehicle: saline with Tween-80.
Where [9] appears, read: dose: 1.56 mg/kg/injection, schedule: Q01DX009 (ip), vehicle: saline.
Where [10] appears, read: dose: 3.12 mg/kg/injection, schedule: Q01DX009 (ip), vehicle: saline.
[11] abbreviates: dose: 6.25 mg/kg/injection, schedule: Q01DX009 (ip), vehicle: saline.

“And” between values parts separate entries of the source, which are not always exact repeats. Equal values may be shown once. Inconclusive results and toxic doses are left out. Where a SMILES comes first, the peptide text is derived from it.

As for `COC(=O)C(N)Cc1ccc(O)c(O)c1` (stereo not given), the T/C is, setting by setting: under setting [1], 102 % of control; under setting [2], 88 % of control and 102 % of control; (dose: 25.0 mg/kg/injection, schedule: Q01DX012 (ip), vehicle: saline) 95 % of control; (dose: 25.0 mg/kg/injection, schedule: Q01DX024 (ip), vehicle: saline) 95 % of control; (dose: 25.0 mg/kg/injection, schedule: Q08HX120 (ip), vehicle: saline) 112 % of control; under setting [3], 90 % of control and 100 % of control. For the same compound, the T/C (dose: 50.0 mg/kg/injection, schedule: Q01DX012 (ip), vehicle: saline) was 94 % of control; the T/C (dose: 50.0 mg/kg/injection, schedule: Q01DX024 (ip), vehicle: saline) was 97 % of control; the T/C under setting [4] was 94 % of control and 98 % of control and 106 % of control; the T/C (dose: 100.0 mg/kg/injection, schedule: Q01DX012 (ip), vehicle: saline) is 94 % of control and 101 % of control; the T/C (dose: 100.0 mg/kg/injection, schedule: Q01DX024 (ip), vehicle: saline) is 91 % of control and 99 % of control; the T/C (dose: 100.0 mg/kg/injection, schedule: Q08HX120 (ip), vehicle: saline) was 109 % of control. For the same compound, the T/C reads like this: (dose: 100.0 mg/kg/injection, schedule: Q#A X040 (ip), vehicle: saline) 91 % of control; under setting [5], 111 % of control and 103 % of control and 106 % of control; (dose: 200.0 mg/kg/injection, schedule: Q01DX012 (ip), vehicle: saline) 96 % of control and 105 % of control; (dose: 200.0 mg/kg/injection, schedule: Q01DX024 (ip), vehicle: saline) 97 % of control and 106 % of control; (dose: 200.0 mg/kg/injection, schedule: Q08HX120 (ip), vehicle: saline) 110 % of control; (dose: 200.0 mg/kg/injection, schedule: Q#A X040 (ip), vehicle: saline) 100 % of control. For the same compound, the T/C runs as follows: (dose: 400.0 mg/kg/injection, schedule: Q01DX009 (ip), vehicle: saline) 117 % of control and 100 % of control and 105 % of control; (dose: 400.0 mg/kg/injection, schedule: Q01DX012 (ip), vehicle: saline) 117 % of control and 102 % of control; (dose: 400.0 mg/kg/injection, schedule: Q01DX024 (ip), vehicle: saline) 108 % of control and 104 % of control; (dose: 400.0 mg/kg/injection, schedule: Q#A X040 (ip), vehicle: saline) 95 % of control; (dose: 600.0 mg/kg/injection, schedule: Q#A X040 (ip), vehicle: saline) 95 % of control; (dose: 800.0 mg/kg/injection, schedule: Q01DX009 (ip), vehicle: saline) 117 % of control. The T/C (dose: 800.0 mg/kg/injection, schedule: Q01DX012 (ip), vehicle: saline) is 116 % of control.
In the case of `O=C1NC(O)c2ccccc2O1` (stereo not given), the T/C is 99 % of control under setting [6]; 101 % of control (dose: 12.5 mg/kg/injection, schedule: Q01DX009 (ip), vehicle: suspension in saline); 103 % of control under setting [7]; 103 % of control (dose: 25.0 mg/kg/injection, schedule: Q01DX009 (ip), vehicle: suspension in saline); 103 % of control under setting [8]; 101 % of control (dose: 50.0 mg/kg/injection, schedule: Q01DX009 (ip), vehicle: suspension in saline). In addition, the T/C is, setting by setting: (dose: 100.0 mg/kg/injection, schedule: Q01DX009 (ip), vehicle: saline with Tween-80) 106 % of control; (dose: 100.0 mg/kg/injection, schedule: Q01DX009 (ip), vehicle: suspension in saline) 98 % of control; (dose: 200.0 mg/kg/injection, schedule: Q01DX009 (ip), vehicle: saline with Tween-80) 114 % of control; (dose: 200.0 mg/kg/injection, schedule: Q01DX009 (ip), vehicle: suspension in saline) 100 % of control; (dose: 400.0 mg/kg/injection, schedule: Q01DX009 (ip), vehicle: suspension in saline) 95 % of control.
Take `COC1/C=C/C=C(/C)Cc2cc(O)c(Cl)c(c2)N(C)C(=O)CC(OC(=O)C(C)C)C2(C)OC2C(C)C2CC1(O)NC(=O)O2` (stereo not given): the T/C is 155 % of control (dose: 0.25 mg/kg/injection, schedule: Q01DX009 (ip), vehicle: saline + alcohol); 150 % of control (dose: 0.5 mg/kg/injection, schedule: Q01DX009 (ip), vehicle: saline + alcohol); 120 % of control (dose: 25.0 micrograms/kg/injection, schedule: Q01DX009 (ip), vehicle: saline + alcohol); 151 % of control (dose: 400.0 micrograms/kg/injection, schedule: Q01DX009 (ip), vehicle: saline + alcohol).
As for `NCC(=O)NC(Cc1ccccc1)C(=O)NCC(=O)O` (stereo not given) (HELM PEPTIDE1{G.[O=C(C(Cc1ccccc1)N[*:1])[*:2]].G}$$$$V2.0), the T/C is 103 % of control (dose: 100.0 mg/kg/injection, schedule: Q01DX009 (ip), vehicle: Klucel (hydroxypropylcellulose) (HPC)); 95 % of control (dose: 200.0 mg/kg/injection, schedule: Q01DX009 (ip), vehicle: Klucel (hydroxypropylcellulose) (HPC)); 100 % of control (dose: 400.0 mg/kg/injection, schedule: Q01DX009 (ip), vehicle: Klucel (hydroxypropylcellulose) (HPC)).
On to `c1cc[c]([Sn]([NH]c2ncnc3[nH]cnc23)([NH]c2ncnc3[nH]cnc23)[c]2ccccc2)cc1`, for which the T/C is 105 % of control under setting [1]; 100 % of control under setting [2]; 100 % of control under setting [3]; 106 % of control under setting [4]; 116 % of control under setting [5].
As to `CC1CCC(NC(=O)N(CCCl)N=O)CC1` (stereo not given), the T/C is 114 % of control (dose: 2.5 mg/kg/injection, schedule: Q01DX005 (ip), vehicle: other); 107 % of control (dose: 2.5 mg/kg/injection, schedule: Q01DX005 (iv), vehicle: other); 98 % of control (dose: 4.0 mg/kg/injection, schedule: Q04DX002 (ip), vehicle: other); 151 % of control (dose: 5.0 mg/kg/injection, schedule: Q01DX005 (ip), vehicle: other); 113 % of control (dose: 8.0 mg/kg/injection, schedule: Q04DX002 (ip), vehicle: other); 111 % of control (dose: 10.0 mg/kg/injection, schedule: Q01DX001 (iv), vehicle: other). Besides, the T/C by setting is: (dose: 10.0 mg/kg/injection, schedule: Q01DX005 (ip), vehicle: other) 294 % of control; (dose: 16.0 mg/kg/injection, schedule: Q04DX002 (ip), vehicle: other) 165 % of control; (dose: 20.0 mg/kg/injection, schedule: Q01DX001 (ip), vehicle: other) 162 % of control; (dose: 20.0 mg/kg/injection, schedule: Q01DX001 (iv), vehicle: other) 168 % of control; (dose: 32.0 mg/kg/injection, schedule: Q04DX002 (ip), vehicle: other) 76 % of control; (dose: 40.0 mg/kg/injection, schedule: Q01DX001 (ip), vehicle: other) 223 % of control. Besides, the T/C (dose: 40.0 mg/kg/injection, schedule: Q01DX001 (iv), vehicle: other) is 222 % of control.
With `CCOc1ccc(-c2nc3ccc(-c4nc5ccc(N6CCN(C)CC6)cc5[nH]4)cc3[nH]2)cc1`, the T/C is 113 % of control under setting [9], 114 % of control under setting [10], 110 % of control under setting [11] and 110 % of control under setting [1].
For `COc1ccc2c(c1)n([O-])c1ccccc1[n+]2=O`, the T/C reads like this: under setting [6], 103 % of control; (dose: 18.0 mg/kg/injection, schedule: Q01DX009 (ip), vehicle: saline with Tween-80) 121 % of control; under setting [7], 108 % of control; (dose: 30.0 mg/kg/injection, schedule: Q01DX009 (ip), vehicle: saline with Tween-80) 101 % of control and 103 % of control; under setting [8], 113 % of control and 114 % of control; (dose: 83.33 mg/kg/injection, schedule: Q01DX009 (ip), vehicle: saline with Tween-80) 108 % of control and 115 % of control.
Turning to `COc1ccc(C(=O)C(CN(C)C)CN(C)C)cc1`, the T/C reads like this: under setting [9], 92 % of control; under setting [10], 96 % of control; under setting [11], 94 % of control; under setting [1], 97 % of control; under setting [2], 102 % of control.
Turning to `Cc1ccc2c(c1)Sc1ccc(N=NN(C)C)cc1N2C`, the T/C is 100 % of control (dose: 6.25 mg/kg/injection, schedule: Q01DX009 (ip), vehicle: other); 114 % of control (dose: 12.5 mg/kg/injection, schedule: Q01DX009 (ip), vehicle: other); 114 % of control (dose: 25.0 mg/kg/injection, schedule: Q01DX009 (ip), vehicle: other); 115 % of control (dose: 50.0 mg/kg/injection, schedule: Q01DX009 (ip), vehicle: other).
